According to US7999002B2, “Use of N-(dibenz(b,f)oxepin-10-ylmethyl)-N-methyl-N-prop-2-ynylamine (omigapil) or a pharmaceutically acceptable addition salt thereof for the prophylaxis and/or treatment of muscular dystrophy” (Santhera Pharmaceuticals (Schweiz) AG, priority 2005, dated 2011):

Tests used:
[1] = molecular target: glyceraldehyde-3-phosphate dehydrogenase (GAPDH) (Homo sapiens, UniProt P04406); settings: reported in J. Biol. Chem. 273:5821-5828; cited from earlier work
[2] = system: homozygous dy^W/dy^W mice deficient in laminin-α2 expression; test: Survival rate in mouse model for MDC1A (Kaplan-Meier, FIG. 1); assay type: in vivo; settings: 0.1 mg/kg once daily (i.p., then gavage from 4th week), 1 out of 13 animals, vehicle 6 out of 15 (=40%)
Procedure: The effect of N-(dibenz(b,f)oxepin-10-ylmethyl)-N-methyl-N-prop-2-ynylammonium maleate (omigapil) on the survival rate was tested in a mouse model for MDC1A deficient in laminin-α2 expression. Starting at day fifteen, homozygous dy^W/dy^W mice were treated with omigapil. Their survival rate was compared to homozygous dy^W/dy^W mice treated with vehicle only. For this, omigapil was dissolved in 0.5% w/v ethanol to a final concentration of 20 μg/ml. The treatment regime was as follows: omigapil (20 μg/ml in 0.5% ethanol) was applied to 3 week old dy^W/dy^W-mice by intraperitoneal (i.p.) injection once per day; from the 4th week of age onwards mice received the same concentration of omigapil once per day by gavage feeding instead of i.p. application. The final dose of omigapil given to dy^W/dy^W-mice at all times was 0.1 mg/kg body weight, once daily following the guidance as described elsewhere (Sagot Y. et al. (2000)—An orally active anti-apoptotic molecule (CGP 3466B) preserves mitochondria and enhances survival in an animal model of motoneuron disease. Br. J. Pharmacol. 131:721-728). Control mice received the equivalent amount of vehicle only. […]

[3] = system: homozygous dy^W/dy^W mice deficient in laminin-α2 expression; test: Muscle fiber size distribution in Triceps muscle (FIG. 4); assay type: in vivo, mouse; settings: dy^W/dy^W mice at 6 weeks of age, 0.1 mg/kg; vehicle 8%; p-value<0.05
Procedure: The effect of N-(dibenz(b,f)oxepin-10-ylmethyl)-N-methyl-N-prop-2-ynylammonium maleate (omigapil) on muscle fiber size distribution was tested in a mouse model for MDC1A deficient in laminin-α2 expression. Muscle fiber diameters were analyzed in Triceps muscle of 6 weeks old dy^W/dy^W mice treated with 0.1 mg/kg body weight omigapil or with vehicle only. The treatment regime was as described in example 1.
It can be concluded from this increase in large diameter myofibers that omigapil improves muscle histology in an animal model for muscular dystrophy caused by laminin α2-deficiency.
Newborn dy^W/dy^W mice were genotyped and randomly assigned to the vehicle or omigapil group. The myofiber diameters were measured following methods known to the skilled artist (Briguet, A., Courdier-Fruh, I., Foster, M., Meier, T., Magyar, J. P. (2004)—“Histological parameters for the quantitative assessment of muscular dystrophy in the mdx-mouse”, Neuromuscul Disord 14(10): 675-82). For each muscle all muscle fibers of one cross section were included into the analysis. 7 animals were analyzed per treatment group. 8% of the myofibers in the Triceps muscle of the vehicle-treated dy^W/dy^W mice had muscle diameters above 50 micrometers at 6 weeks of age while 15% of myofibres in the omigapil-treated group fulfilled this criteria. Asterisk: p-value<0.05.

[4] = system: homozygous dy^W/dy^W mice deficient in laminin-α2 expression; test: Voluntary exploratory locomotory activity in a new cage (FIG. 6); assay type: in vivo, mouse; settings: dy^W/dy^W mice at 6 weeks of age; for locomotory activity in the 10-minute test period: vehicle 236 seconds, p-value<0.05
Procedure: The therapeutically relevant effect of N-(dibenz(b,f)oxepin-10-ylmethyl)-N-methyl-N-prop-2-ynylammonium maleate (omigapil) on the voluntary locomotion was tested in a mouse model for MDC1A deficient in laminin-α2 expression. Starting at day fifteen, homozygous dy^W/dy^W mice were treated with omigapil at doses of 0.1 or 1 mg/kg body weight. Their individual exploratory locomotory activity was assessed at 6 weeks of age and compared to age-matched dy^W/dy^W mice treated with vehicle only. The treatment regime was as described in example 1.
It can be concluded that omigapil increases locomotory activity in an animal model for muscular dystrophy caused by laminin α2-deficiency.
Newborn dy^W/dy^W mice were genotyped and randomly assigned to the vehicle or the 0.1 and 1 mg/kg omigapil groups. The voluntary locomotory activity was measured within the first 10 minutes after having placed the animal in a new cage. […] The difference in activity is statistically significant for both omigapil treatments (asterisk: p-value<0.05). In total 13, 15 and 10 animals were included into the vehicle, the 0.1 and the 1 mg/kg omigapil group, respectively.

[5] = system: homozygous dy^W/dy^W mice deficient in laminin-α2 expression; test: Skeletal muscle apoptosis (TUNEL) in Triceps muscle (FIG. 3); assay type: in vivo, mouse; settings: dy^W/dy^W mice at 6 weeks of age, 0.1 mg/kg
Procedure: The effect of N-(dibenz(b,f)oxepin-10-ylmethyl)-N-methyl-N-prop-2-ynylammonium maleate (omigapil) on skeletal muscle apoptosis was tested in a mouse model for MDC1A deficient in laminin-α2 expression. Starting at day fifteen, homozygous dy^W/dy^W mice were treated with omigapil. The number of apoptotic myonuclei were analyzed and compared to the number of apoptotic myonuclei determined in homozygous dy^W/dy^W mice treated with vehicle only and to the number of apoptotic myonuclei determined in untreated wild-type mice. For this, omigapil was given to dy^W/dy^W-mice at a dose of 0.1 mg/kg body weight according to the treatment regime described in example 1. […]
Newborn dy^W/dy^W mice were genotyped and randomly assigned to the vehicle or omigapil group. The apoptotic myonuclei in the Triceps foreleg muscle were determined by counting muscle fibers positively stained for Terminal dUTP nick end labeling (TUNEL). […] The relative number of apoptotic myofibres was calculated by dividing the number of TUNEL positive myonuclei by the total number of myofibres. 7 animals were analyzed per treatment group. 1.1% of the myofibers in the Triceps muscle of the vehicle-treated dy^W/dy^W mice had apoptotic myonuclei at 6 weeks of age while only 0.7% apoptotic myofibres were detected in the omigapil-treated group. […]

[6] = system: homozygous dy^W/dy^W mice deficient in laminin-α2 expression; test: Body weight gain in mouse model for MDC1A (FIG. 2); assay type: in vivo; settings: vehicle maximally 11%
Procedure: Example 2 describes the therapeutically relevant effect of N-(dibenz(b,f)oxepin-10-ylmethyl)-N-methyl-N-prop-2-ynylammonium maleate (omigapil) on the body weight gain in a mouse model for MDC1A deficient in laminin-α2 expression. Starting at day fifteen, homozygous dy^W/dy^W mice were treated with omigapil. Their individual body weights were assessed daily and compared to homozygous dy^W/dy^W mice treated with vehicle only (control group). For this, omigapil was given to dy^W/dy^W-mice at doses of 0.1 or 1 mg/kg body weight, respectively. The treatment regime was as described in example 1.
Newborn dy^W/dy^W mice were genotyped and randomly assigned to the vehicle or the 0.1 and 1 mg/kg omigapil groups. The individual body weights were assessed daily and the mean body weight were calculated every week. The percentage of mice above an average body weight of twelve grams is shown grouped according to age (between 6 and 11 weeks) for each treatment group. In total 27, 34 and 25 animals were included into the vehicle, the 0.1 and the 1 mg/kg omigapil group, respectively.

[7] = system: homozygous dy^W/dy^W mice deficient in laminin-α2 expression; test: Skeletal deformation (kyphosis) by X-ray analysis and visual scoring (FIG. 5); assay type: in vivo, mouse; settings: dy^W/dy^W mice at 11 weeks of age, 1 mg/kg; example animal; vehicle 66°
Procedure: The beneficial and therapeutically relevant effect of N-(dibenz(b,f)oxepin-10-ylmethyl)-N-methyl-N-prop-2-ynylammonium maleate (omigapil) on the skeletal deformation (i.e. kyphosis) was tested in a mouse model for MDC1A deficient in laminin-α2 expression. For this, homozygous dy^W/dy^W mice were treated with omigapil (at a dose of 1 mg/kg body weight) and their kyphosis was scored at 11 weeks of age by visual inspection and X-ray analysis and compared to the extent of kyphosis seen in homozygous dy^W/dy^W mice treated with vehicle only and untreated wildtype mice. The treatment regime was as described in example 1.
Spinal deformation was documented by X-ray pictures of an age-matched wild-type mouse (A), a vehicle-treated (B) and an 1 mg/kg omigapil-treated dy^W/dy^W mouse (C). The kyphosis was quantified in living animals using a visual scoring system (1: barely detectable, 2: mild, 3: moderate, 4: severe) (D). 9 vehicle- and 7 omigapil-treated animals were analyzed.

glyceraldehyde-3-phosphate dehydrogenase (GAPDH), sequence (P04406 whole entry, species assumed): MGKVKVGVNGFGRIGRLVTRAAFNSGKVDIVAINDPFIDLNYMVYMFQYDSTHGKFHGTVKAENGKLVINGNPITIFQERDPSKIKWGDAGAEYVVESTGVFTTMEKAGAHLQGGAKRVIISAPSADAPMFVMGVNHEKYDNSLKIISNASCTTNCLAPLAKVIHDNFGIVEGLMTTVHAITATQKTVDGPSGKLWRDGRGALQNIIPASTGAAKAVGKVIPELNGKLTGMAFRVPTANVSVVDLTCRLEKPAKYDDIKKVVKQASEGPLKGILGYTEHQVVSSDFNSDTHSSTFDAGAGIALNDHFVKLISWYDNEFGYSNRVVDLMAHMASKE

Compound	binding to GAPDH [1]	animals died within the first 80 days of age [2] [%]	myofibres with muscle fiber diameters above 50 micrometers in the Triceps muscle [3] [%]	increase in locomotory activity compared to vehicle group ([4]; 0.1 mg/kg) [%]	locomotory activity in the 10-minute test period ([4]; 0.1 mg/kg) [seconds]	increase in locomotory activity compared to vehicle group ([4]; 1 mg/kg) [%]	locomotory activity in the 10-minute test period ([4]; 1 mg/kg) [seconds]	reduction in apoptotic myofibres compared to vehicle ([5]; Triceps muscle) [%]	apoptotic myofibres in the Triceps muscle (TUNEL) ([5]; vehicle 1.1%) [%]	percentage of mice that reached a body weight above 12 grams within the first 11 weeks of age ([6]; 0.1 mg/kg omigapil) [%]	percentage of mice that reached a body weight above 12 grams within the first 11 weeks of age ([6]; 1 mg/kg omigapil) [%]	angle spanned by the spine (kyphosis, X-ray) [7] [°]
C#CCN(C)CC1=Cc2ccccc2Oc2ccccc21 [compound of formula (I), N-(dibenz(b,f)oxepin-10-ylmethyl)-N-methyl-N-prop-2-ynylamine]	binds to glyceraldehyde-3-phosphate dehydrogenase (GAPDH)	–	–	–	–	–	–	–	–	–	–	–
N-(dibenz(b,f)oxepin-10-ylmethyl)-N-methyl-N-prop-2-ynylammonium maleate [omigapil]	–	8	15	39	330	26	301	35	0.7	25	43	89
